Patent publication US9309179B2 (FAB PHARMA S.A.S., priority 2006, dated 2016)
pIC50: −log10 of the molar value. Values after ≈ are worked out from the molar mass of the structure shown. Where two headings read alike, the source gives them in different places.

Assays:
[1] = target: T1, recombinant E. coli FabI enzyme (Escherichia coli, UniProt P0AEK4); experiment: FabI inhibition, fluorescence-based NADH assay; format: biochemical
T1 construct: 6-His (C); made in house; host or cells: prokaryotic expression vector
T1 sequence (P0AEK4 whole entry): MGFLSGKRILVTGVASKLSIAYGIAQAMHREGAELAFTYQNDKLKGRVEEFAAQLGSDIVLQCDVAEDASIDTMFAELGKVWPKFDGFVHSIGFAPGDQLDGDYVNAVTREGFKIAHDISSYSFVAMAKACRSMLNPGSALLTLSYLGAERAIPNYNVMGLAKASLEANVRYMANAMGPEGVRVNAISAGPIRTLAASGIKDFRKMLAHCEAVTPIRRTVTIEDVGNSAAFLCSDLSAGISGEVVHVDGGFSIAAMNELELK
Method: Compound inhibitory activity of FabI enzyme is measured in vitro by the IC50 determination using a fluorescent based assay.
The protein FabI from E. coli is prepared and purified using standard methods for recombinant protein expression after cloning of the gene in a prokaryotic expression vector.
The biochemical activity of the FabI enzyme is assessed using the following method.
The assay buffer “AB” contains 50 mM Hepes pH7.5, 100 μM Dithiothreitol, 0.006% Triton-X100. The following components are added in a black polystyrene Costar plate up to a final volume of 55 μL: 1.5 μL DMSO, or inhibitor dissolved in DMSO and 53.5 μL of a FabI/NADH/NAD+ mixture in AB. After 60 min of pre-incubation at room temperature, the reaction is started by addition of 5 μL of Crotonoyl-CoA to a final volume of 60 μL. This reaction mixture is then composed of 40 nM FabI (produced in house from E. coli, C-terminal 6-His tagged), 20 μM NADH (Biochemika), 10 μM NAD+ (Biochemika), 50 μM Crotonoyl-CoA (Biochemika) and compound at defined concentration. Fluorescence intensity of NADH (lex=360 nm, lem=520 nm) is measured immediately after Crotonoyl-CoA addition, and 2 hours later by a Fluostar Optima (BMG). Enzyme activity is proportional to the signal decrease from which inhibition percentages are derived. For IC50 determinations, the inhibitor is tested at 6 to 10 different concentrations, and the related inhibitions are fitted to a classical langmuir equilibrium model using XLFIT (IDBS).
In Vitro Inhibition of Recombinant E. coli FabI Enzyme by Selected Compounds of Formula (I).

[2] = system: S. aureus NEM14157; experiment: MIC, broth microdilution; format: cell-based; details: Staphylococcus aureus, NEM14157; broth microdilution, 37° C., 20 h; read-out: MIC S. aureus NEM14157
Method: (§1) The compounds of the present invention are useful antibacterial agents having a selective spectrum of activity in vitro against standard bacterial strains which are used to screen for activity against pathogenic bacteria. […] The activity is presented as Minimum Inhibitory Concentration (MIC) expressed in μg/ml.
(§2) Whole-cell antimicrobial activity was determined by broth microdilution method in microtiterplates. The compound was tested in serial 4-fold dilutions ranging from 0.06 to 64 mcg/mL. Test organisms were selected from the following laboratory strains: Staphylococcus aureus CIP 76.25, Staphylococcus aureus BAA39 MDR, Staphylococcus aureus NEM 14157 PeniR, Staphylococcus aureus CIP 54.146, Escherichia coli CIP 76.24. Bacteria were tested in Tryptic Soy (TS) or Mueller Hinton (MH) broth using an inoculum of 10^4 to 10^6 UFC/mL incubated at 37° C. for 20 h.
(§3) The minimum inhibitory concentration (MIC) was determined as the lowest concentration of compound at which no visible bacteria growth is observed (90% inhibition of absorbance of at […].)

[3] = system: S. aureus CIP 76.25; experiment: MIC, broth microdilution; format: cell-based; details: Staphylococcus aureus, CIP76; broth microdilution, 37° C., 20 h; read-out: MIC S. aureus CIP 76.25
Method: as §1, §2, §3

[4] = system: E. coli CIP 76.24; experiment: MIC, broth microdilution; format: cell-based; details: Escherichia coli, CIP76; broth microdilution, 37° C., 20 h; read-out: MIC E. coli CIP 76.24
Method: as §1, §2, §3

[5] = system: S. aureus BAA39MDR; experiment: MIC, broth microdilution; format: cell-based; details: Staphylococcus aureus, broth microdilution, 37° C., 20 h, read-out: MIC S. aureus BAA39MDR
Method: as §1, §2, §3

[6] = system: S. aureus USA300 MRSA*; experiment: MIC against resistant strains of S. aureus; format: cell-based; details: Staphylococcus aureus, read-out: MIC S. aureus USA300 MRSA*
[7] = system: S. aureus 1651 LRSA*; experiment: MIC against resistant strains of S. aureus; format: cell-based; details: Staphylococcus aureus, read-out: MIC S. aureus 1651 LRSA*
Method: as §2, §3
(§4) In Vitro Activities Against Resistant Stains of S. aureus

[8] = system: S. aureus MRSA*; experiment: MIC against resistant strains of S. aureus; format: cell-based; details: Staphylococcus aureus, read-out: MIC S. aureus MRSA*
Method: as §2, §3, §4

[9] = system: S. aureus 2012 VISA; experiment: MIC against resistant strains of S. aureus; format: cell-based; details: Staphylococcus aureus, read-out: MIC S. aureus 2012 VISA
Method: as §2, §3, §4

[10] = system: S. aureus 2018 VISA*; experiment: MIC against resistant strains of S. aureus; format: cell-based; details: Staphylococcus aureus, read-out: MIC S. aureus 2018 VISA*
Method: as §2, §3, §4

[11] = system: S. aureus 1652 LRSA; experiment: MIC against resistant strains of S. aureus; format: cell-based; details: Staphylococcus aureus, read-out: MIC S. aureus 1652 LRSA
Method: as §2, §3, §4

[12] = Methicillin Resistant S. aureus

| SMILES | pIC50 ([1]; recombinant E. coli FabI 40 nM, 60 min pre-incubation, NADH fluorescence, read-out: IC50) | MIC [2] [µg/mL] | MIC [3] [µg/mL] | MIC [4] [µg/mL] | MIC [5] [µg/mL] | MIC [6, 12] [µg/mL] | MIC ([7]; Linezolid resistant S. aureus) [µg/mL] | MIC [8, 12] [µg/mL] | MIC ([9]; VISA strain) [µg/mL] | MIC ([10]; VISA strain) [µg/mL] | MIC ([11]; Linezolid resistant S. aureus) [µg/mL] | pIC50 [1] | MIC [6] [µg/mL] | MIC [7] [µg/mL] | MIC [8] [µg/mL] | MIC ([9]; VISA) [µg/mL] | MIC ([10]; VISA) [µg/mL] | MIC [11] [µg/mL] |
| --- | --- | --- | --- | --- | --- | --- | --- | --- | --- | --- | --- | --- | --- | --- | --- | --- | --- | --- |
| CCCc1ccc(Oc2cccc(F)n2)c(O)c1 [Example 5, 2-[(6-fluoropyridin-2-yl)oxy]-5-propylphenol] | 6.01 | 0.25 (≈ 1.01 µM) | 0.25 (≈ 1.01 µM) | 4 (≈ 16.2 µM) | 0.25 (≈ 1.01 µM) |  |  |  |  |  |  |  |  |  |  |  |  |  |
| CCc1ccc(Oc2ccc(NCCCO)cc2F)c(O)c1 [Example 48, 5-Ethyl-2-[2-fluoro-4-(3-hydroxy-propylamino)-phenoxy]-phenol] |  |  | 0.062 (≈ 0.203 µM) | 4 (≈ 13.1 µM) |  | 0.5 (≈ 1.64 µM) | 0.12 (≈ 0.393 µM) | 0.06 (≈ 0.196 µM) | 0.12 (≈ 0.393 µM) | 0.25 (≈ 0.819 µM) | 0.5 (≈ 1.64 µM) |  |  |  |  |  |  |  |
| CCc1ccc(Oc2ccc(NCCCCO)cc2F)c(O)c1 [Example 37, 5-ethyl-2-{2-fluoro-4-[(4-hydroxybutyl)amino]phenoxy}phenol] |  | 0.25 (≈ 0.783 µM) | 0.062 (≈ 0.194 µM) | 4 (≈ 12.5 µM) | 0.25 (≈ 0.783 µM) |  |  |  |  |  |  | 6.39 |  |  |  |  |  |  |
| CCCNS(=O)(=O)c1ccc(Oc2ccc(CC)cc2O)c(F)c1 [Example 71, 4-(4-ethyl-2-hydroxyphenoxy)-3-fluoro-N-propyl benzenesulfonamide] |  | 0.062 (≈ 0.175 µM) | < 0.062 | 4 (≈ 11.3 µM) | 0.25 (≈ 0.707 µM) |  |  |  |  |  |  | 6.48 |  |  |  |  |  |  |
| CCc1ccc(Oc2cccnc2N)c(O)c1 [Example 21, 2-[(2-aminopyridin-3-yl)oxy]-5-ethylphenol] |  | 0.25 (≈ 1.09 µM) | 0.25 (≈ 1.09 µM) | 0.25 (≈ 1.09 µM) | 0.25 (≈ 1.09 µM) | 0.5 (≈ 2.17 µM) | 0.12 (≈ 0.521 µM) | 0.12 (≈ 0.521 µM) | 0.12 (≈ 0.521 µM) | 0.25 (≈ 1.09 µM) | 0.5 (≈ 2.17 µM) | 7.16 |  |  |  |  |  |  |
| CN[C@H](CC(C)C)C(=O)N[C@H]1C(=O)N[C@@H](CC(N)=O)C(=O)N[C@H]2C(=O)N[C@H]3C(=O)N[C@H](C(=O)N[C@H](C(=O)O)c4cc(O)cc(O)c4-c4cc3ccc4O)[C@H](O)c3ccc(c(Cl)c3)Oc3cc2cc(c3O[C@@H]2O[C@H](CO)[C@@H](O)[C@H](O)[C@H]2O[C@H]2C[C@](C)(N)[C@H](O)[C@H](C)O2)Oc2ccc(cc2Cl)[C@H]1O [Vancomycin, reference compound] |  |  |  |  |  |  |  |  |  |  |  |  | 0.5 (≈ 0.345 µM) | 1 (≈ 0.69 µM) | 1 (≈ 0.69 µM) | 8 (≈ 5.52 µM) | 4 (≈ 2.76 µM) | 1 (≈ 0.69 µM) |
